The nature of this data set: Compatibility of desloratadine with excipient materials, N-formyl desloratadine by HPLC. It counts as physicochemical. As for the experimental part: Compatibility of desloratadine with various excipient materials was determined by mixing the drug and an excipient, then subjecting the mixture to direct exposure for 14 days at 40° C. and 75% relative humidity. The analytical results for the presence of N-formyl desloratadine in the samples (as determined by HPLC) were as tabulated below, where ratios are expressed on a weight basis. Desloratadine and polacrilin resin (AMBERLITE IRP64) were dispersed in water and stirred for 2 hours, isolated by filtration, and then dried at 60° C. until the loss on drying was not more than 10% w/w when tested using an infrared moisture balance at 105° C. Where citric acid was used, the quantity of citric acid was selected to adjust the pH of the dispersion to about 6.5. Where lactose was used, the quantity of lactose is 6 times the weight of other materials, and the lactose is dry mixed with the desloratadine or dried desloratadine-resin mixture.

Turning to `Clc1ccc2c(c1)CCc1cccnc1C2=C1CCNCC1` [Desloratadine, 8-chloro-6,11-dihydro-11-(4-piperidinylidene)-5H-benzo[5,6]-cyclohepta[1,2-b]pyridine], the “% N-Formyl DCL Initial” value (Initial) was “Nil”. Also, the “% N-Formyl DCL After exposure” value (direct exposure for 14 days at 40° C. and 75% relative humidity) is recorded as “Nil”.

Values taken from US20100129310A1, “STABILIZED DESLORATADINE COMPOSITION” (priority 2005, published 2010).
